Results on 7 molecules are retold here after publication PMC1307573 (Journal of Insect Science, 2005).

For series [1], the target named is T1, Gyc-88EL (Drosophila melanogaster, UniProt Q8INF0).
T1 sequence (Q8INF0 1-1097): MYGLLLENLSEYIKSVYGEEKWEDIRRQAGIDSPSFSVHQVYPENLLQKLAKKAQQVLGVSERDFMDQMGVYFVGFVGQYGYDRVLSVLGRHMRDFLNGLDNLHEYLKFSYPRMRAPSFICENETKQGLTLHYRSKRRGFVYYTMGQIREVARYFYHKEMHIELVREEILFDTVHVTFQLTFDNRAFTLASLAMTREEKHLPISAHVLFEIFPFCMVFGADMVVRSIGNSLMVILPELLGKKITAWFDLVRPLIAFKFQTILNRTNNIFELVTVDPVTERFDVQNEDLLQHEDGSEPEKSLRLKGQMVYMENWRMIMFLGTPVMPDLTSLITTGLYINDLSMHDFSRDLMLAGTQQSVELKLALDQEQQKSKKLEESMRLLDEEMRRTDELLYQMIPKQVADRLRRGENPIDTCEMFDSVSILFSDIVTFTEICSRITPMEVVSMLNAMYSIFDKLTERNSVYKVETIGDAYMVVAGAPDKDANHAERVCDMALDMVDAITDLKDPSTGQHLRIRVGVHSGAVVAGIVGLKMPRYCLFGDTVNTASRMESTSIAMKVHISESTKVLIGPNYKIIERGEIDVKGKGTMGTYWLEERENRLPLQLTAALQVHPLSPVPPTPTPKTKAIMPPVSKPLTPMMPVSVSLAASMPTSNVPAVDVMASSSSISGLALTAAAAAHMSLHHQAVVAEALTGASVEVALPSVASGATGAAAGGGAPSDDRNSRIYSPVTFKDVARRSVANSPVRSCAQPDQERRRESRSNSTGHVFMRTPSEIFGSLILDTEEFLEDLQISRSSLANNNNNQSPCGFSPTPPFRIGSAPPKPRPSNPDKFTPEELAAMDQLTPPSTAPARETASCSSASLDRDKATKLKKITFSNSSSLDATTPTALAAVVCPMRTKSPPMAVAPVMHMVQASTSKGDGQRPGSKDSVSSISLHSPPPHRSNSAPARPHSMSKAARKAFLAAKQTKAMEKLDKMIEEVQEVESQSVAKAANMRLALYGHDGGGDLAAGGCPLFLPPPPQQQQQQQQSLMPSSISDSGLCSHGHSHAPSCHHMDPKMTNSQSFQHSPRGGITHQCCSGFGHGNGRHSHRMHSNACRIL
Type of series: biochemical.

In another series the target is Gyc-88EL/89Da (Drosophila melanogaster, UniProt Q8INF0+Q9VEU6). Type of series: biochemical.
Series [2] concerns the target T2, Gyc-88EL/89Db (Drosophila melanogaster, UniProt Q8INF0+Q9VEU5). It is filed as biochemical. The conditions noted are these: for activation by NO-independent activator: COS-7 cell extracts, 4mM Mg2+.
The conditions of series [3]: NO donor; cited from earlier work.
The next series has as its target Gycα-99B/β-100B (Drosophila melanogaster, UniProt Q07093+Q9VA09). Type of series: biochemical.
Series [4] addresses T1, Gyc-88EL. The conditions noted are these: ref Langlais et al. 2004, cited from earlier work.
In series [5] the target is T2, Gyc-88EL/89Db. The conditions noted are these: ref Langlais et al. 2004; cited from earlier work.

T2 sequence (Q9VEU5 whole entry, one chain of several): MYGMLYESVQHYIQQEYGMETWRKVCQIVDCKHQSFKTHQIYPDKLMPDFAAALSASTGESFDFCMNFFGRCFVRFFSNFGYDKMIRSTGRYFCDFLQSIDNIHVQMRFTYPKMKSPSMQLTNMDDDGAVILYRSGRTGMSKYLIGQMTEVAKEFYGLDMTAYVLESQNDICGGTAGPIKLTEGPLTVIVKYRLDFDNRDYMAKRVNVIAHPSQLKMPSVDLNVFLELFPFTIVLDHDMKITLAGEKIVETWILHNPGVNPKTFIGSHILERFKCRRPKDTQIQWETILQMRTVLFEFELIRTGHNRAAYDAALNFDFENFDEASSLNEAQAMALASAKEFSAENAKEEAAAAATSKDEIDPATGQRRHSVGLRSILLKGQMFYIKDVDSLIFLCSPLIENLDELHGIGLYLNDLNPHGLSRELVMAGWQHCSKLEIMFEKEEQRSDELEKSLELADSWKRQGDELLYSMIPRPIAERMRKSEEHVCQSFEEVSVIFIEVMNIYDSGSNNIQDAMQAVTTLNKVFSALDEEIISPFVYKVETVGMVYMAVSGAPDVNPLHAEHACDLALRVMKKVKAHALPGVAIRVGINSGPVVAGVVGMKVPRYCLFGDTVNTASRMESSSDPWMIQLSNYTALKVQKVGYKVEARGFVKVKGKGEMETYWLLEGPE
Sequence of Gyc-88EL/89Da (Q9VEU6 whole entry, one chain of several): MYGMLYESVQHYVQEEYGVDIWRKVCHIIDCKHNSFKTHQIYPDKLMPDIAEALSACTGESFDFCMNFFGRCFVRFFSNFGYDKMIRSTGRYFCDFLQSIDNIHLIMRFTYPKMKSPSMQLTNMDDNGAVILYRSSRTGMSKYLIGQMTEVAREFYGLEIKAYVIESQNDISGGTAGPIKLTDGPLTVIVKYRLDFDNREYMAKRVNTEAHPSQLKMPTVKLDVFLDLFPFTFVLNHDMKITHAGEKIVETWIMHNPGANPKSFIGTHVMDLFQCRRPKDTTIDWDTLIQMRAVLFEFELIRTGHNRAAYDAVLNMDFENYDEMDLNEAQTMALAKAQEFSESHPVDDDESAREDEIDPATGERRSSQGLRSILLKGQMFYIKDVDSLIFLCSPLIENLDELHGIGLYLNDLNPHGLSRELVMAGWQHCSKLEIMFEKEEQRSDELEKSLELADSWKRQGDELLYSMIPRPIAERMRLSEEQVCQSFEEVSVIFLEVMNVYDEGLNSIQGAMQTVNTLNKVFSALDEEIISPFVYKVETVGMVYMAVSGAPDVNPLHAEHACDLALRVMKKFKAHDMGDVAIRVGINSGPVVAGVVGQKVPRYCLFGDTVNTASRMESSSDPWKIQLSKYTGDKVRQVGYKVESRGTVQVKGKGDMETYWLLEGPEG

For `CC(=O)NC(C(=O)O)C(C)(C)SN=O` (centres unmarked) [SNAP, S-nitroso-N-acetylpenicillamine], on Gyc-88EL [1] (COS-7 cell extracts, 4mM Mg2+), the EC50 for activation result is “not saturated with 100 μM SNAP”. Also, the EC50 on Gyc-88EL/89Da and on Gyc-88EL/89Db [2] was about 10 µM each time.

Turning to `CCNCCN(CC)N(O)N=O` [NOC-12], the half-life (in general, the time needed for the level to fall by half in the phase considered) in series [3] is 5.45 h. The EC50 on Gyc-88EL/89Da and on Gyc-88EL/89Db [2] was about 2 µM in each case.

For `Nc1nc2c(ncn2[C@@H]2O[C@H](COP(=O)(O)OP(=O)(O)OP(=O)(O)O)[C@@H](O)[C@H]2O)c(=O)[nH]1` [GTP], the “Vmax Mn/Mg” value at Gyc-88EL [1] (ratio of Vmax in Mn2+ to Mg2+) is 1.71; at Gycα-99B/β-100B (ratio of Vmax in Mn2+ to Mg2+), 96.7; at Gyc-88EL/89Da (ratio of Vmax in Mn2+ to Mg2+), 46.9; at Gyc-88EL/89Db [2] (ratio of Vmax in Mn2+ to Mg2+) it was 1.81.

For `Nc1nc(-c2nn(Cc3ccccc3F)c3ncccc23)ncc1C1CC1` [BAY 41-2272], the “activation by NO-independent activator” value on Gyc-88EL [1] (COS-7 cell extracts, 4mM Mg2+) is listed as “None of the atypical guanylyl cyclase subunit combinations showed any activation”; at Gyc-88EL/89Da (COS-7 cell extracts, 4mM Mg2+), “None of the atypical guanylyl cyclase subunit combinations showed any activation”; at Gyc-88EL/89Db [2], “None of the atypical guanylyl cyclase subunit combinations showed any activation”. In addition, the EC50 – broadly, the concentration that produces a half-maximal response – at Gycα-99B/β-100B was 7.3 µM. In addition, the “activation at 30 μM” value at Gycα-99B/β-100B (30 μM, 4mM Mg2+) was “over 100 fold”.

For `OCc1ccc(-c2nn(Cc3ccccc3)c3ccccc23)o1` [YC-1], the “activation by NO-independent activator” value is “insensitivity” on Gyc-88EL [1] (COS-7 cell extracts, 4mM Mg2+); “only activate the conventional enzyme” on Gycα-99B/β-100B; “insensitivity” at Gyc-88EL/89Da (COS-7 cell extracts, 4mM Mg2+); “insensitivity” at Gyc-88EL/89Db [2].

In the case of `CCN(CC)/[N+]([O-])=N/O` [DEA-NONOate, diethylamine- (DEA)-NONOate], the “activation at 100 μM” value at Gyc-88EL [4] (100 μM) and at Gyc-88EL/89Db [5] was “did not significantly activate” throughout. Also, the “maximal stimulation of guanylyl cyclase activity” value is on record as “No stimulation” on Gyc-88EL [1] (COS-7 cell extracts, 4mM Mg2+) and “No stimulation” at Gyc-88EL/89Da (COS-7 cell extracts, 4mM Mg2+). At Gyc-88EL/89Db [2], this molecule came in with an EC50 of about 0.1 µM. The “DEA-NONOate-stimulated guanylyl cyclase activity” value on Gyc-88EL/89Db [2] (1 μM DEA-NONOate, absence of ODQ, basal 208 ± 19) is given as 676 ± 70 fmoles cGMP/min/mg protein. In addition, the “concentration of maximal activation” value on Gyc-88EL/89Db [2] (bell-shaped response) is on record as “about 1 μM”.

As to `O=c1onc2cnc3ccccc3n12` [ODQ, 1H-[1,2,4]oxadiazolo [4,3,-a]quinoxaline-1-one], on Gyc-88EL [4], the “inhibition of the activation by sodium nitroprusside” value is reported as “ineffective”. Besides, at Gycα-99B/β-100B (all forms of the soluble guanylyl cyclases), the “blocking of the NO-stimulation” value is reported as “effective at blocking the NO-stimulation”. Besides, the “inhibition of NOC-12-stimulated activity” value against Gyc-88EL/89Da (100 μM ODQ, data not shown) is “inhibited”; against Gyc-88EL/89Db [2] (100 μM ODQ, data not shown) it was “inhibited”. The “DEA-NONOate-stimulated guanylyl cyclase activity in the presence of ODQ” value on Gyc-88EL/89Db [2] (1 μM DEA-NONOate + 100 μM ODQ, 676 ± 70 in the absence) was 141 ± 21 fmoles cGMP/min/mg protein. The “basal guanylyl cyclase activity in the presence of ODQ” value on Gyc-88EL/89Db [2] (100 μM ODQ, 208 ± 19 in the absence) is 237 ± 13 fmoles cGMP/min/mg protein.
